The text below walks through data of patent EP0649843B1, “THIAZOLINE DERIVATIVE” (TAISHO PHARMACEUTICAL CO. LTD, priority 1992, dated 1994).

Counter-ions that a name gives are not always drawn.

Assay [1] deals with Blood platelet aggregation. Kind of assay: Inhibition test of human in vitro platelet aggregation (ADP-induced). It is filed as cell-based. The protocol: The blood platelet counts of PRP were adjusted to (50 to 60) x 10^4/µl by diluting with PPP.
Blood platelet aggregation was determined according to the method of Born G.V.R., [Nature, vol. […] That is, a solution of the compound of Formula (I) as a test drug in dimethyl sulfoxide was adjust to the desired concentration with a physiological saline solution. 25 µl of the solution was added to 250 µl of PRP and incubated at 37°C for 3 minutes, and 25 µl of ADP (final concentration : 7 µM) was added thereto.

In assay [2] the target is T1, fibrinogen receptor (GpIIb/IIIa) (Homo sapiens, UniProt P05106+P08514).
T1 construct: gel filtration using Sepharose 2B column to give a blood platelet suspension; endogenous in cells; host or cells: human blood platelets (gel-filtered, from platelet rich plasma of a healthy donor)
T1 sequence (P08514 32-887 limits assumed): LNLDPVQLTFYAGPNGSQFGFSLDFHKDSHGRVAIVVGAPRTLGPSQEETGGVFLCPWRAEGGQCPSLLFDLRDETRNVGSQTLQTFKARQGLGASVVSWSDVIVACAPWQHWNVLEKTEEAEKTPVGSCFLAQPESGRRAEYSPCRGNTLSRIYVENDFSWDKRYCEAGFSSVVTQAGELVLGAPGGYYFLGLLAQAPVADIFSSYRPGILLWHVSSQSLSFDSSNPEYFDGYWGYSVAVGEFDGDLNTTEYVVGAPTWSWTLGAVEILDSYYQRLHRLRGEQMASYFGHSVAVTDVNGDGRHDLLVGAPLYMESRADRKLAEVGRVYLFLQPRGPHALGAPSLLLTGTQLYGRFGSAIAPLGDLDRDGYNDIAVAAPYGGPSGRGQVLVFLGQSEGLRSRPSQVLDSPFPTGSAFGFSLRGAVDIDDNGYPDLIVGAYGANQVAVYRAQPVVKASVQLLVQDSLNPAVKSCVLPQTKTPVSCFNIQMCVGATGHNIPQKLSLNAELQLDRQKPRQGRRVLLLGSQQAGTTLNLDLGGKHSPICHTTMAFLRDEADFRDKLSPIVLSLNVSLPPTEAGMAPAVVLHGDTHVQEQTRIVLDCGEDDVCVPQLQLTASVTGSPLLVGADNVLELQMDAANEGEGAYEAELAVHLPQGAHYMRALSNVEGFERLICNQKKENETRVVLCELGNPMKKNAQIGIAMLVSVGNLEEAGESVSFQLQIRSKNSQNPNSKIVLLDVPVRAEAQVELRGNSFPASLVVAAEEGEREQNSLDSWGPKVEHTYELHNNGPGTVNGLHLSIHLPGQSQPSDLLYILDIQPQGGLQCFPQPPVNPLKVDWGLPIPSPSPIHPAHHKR
T1 sequence (P08514 891-1039 partner limits assumed): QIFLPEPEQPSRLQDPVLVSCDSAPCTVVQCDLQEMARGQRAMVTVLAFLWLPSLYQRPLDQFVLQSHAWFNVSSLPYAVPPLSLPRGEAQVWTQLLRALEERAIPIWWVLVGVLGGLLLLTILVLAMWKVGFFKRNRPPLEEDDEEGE
T1 sequence (P05106 27-788): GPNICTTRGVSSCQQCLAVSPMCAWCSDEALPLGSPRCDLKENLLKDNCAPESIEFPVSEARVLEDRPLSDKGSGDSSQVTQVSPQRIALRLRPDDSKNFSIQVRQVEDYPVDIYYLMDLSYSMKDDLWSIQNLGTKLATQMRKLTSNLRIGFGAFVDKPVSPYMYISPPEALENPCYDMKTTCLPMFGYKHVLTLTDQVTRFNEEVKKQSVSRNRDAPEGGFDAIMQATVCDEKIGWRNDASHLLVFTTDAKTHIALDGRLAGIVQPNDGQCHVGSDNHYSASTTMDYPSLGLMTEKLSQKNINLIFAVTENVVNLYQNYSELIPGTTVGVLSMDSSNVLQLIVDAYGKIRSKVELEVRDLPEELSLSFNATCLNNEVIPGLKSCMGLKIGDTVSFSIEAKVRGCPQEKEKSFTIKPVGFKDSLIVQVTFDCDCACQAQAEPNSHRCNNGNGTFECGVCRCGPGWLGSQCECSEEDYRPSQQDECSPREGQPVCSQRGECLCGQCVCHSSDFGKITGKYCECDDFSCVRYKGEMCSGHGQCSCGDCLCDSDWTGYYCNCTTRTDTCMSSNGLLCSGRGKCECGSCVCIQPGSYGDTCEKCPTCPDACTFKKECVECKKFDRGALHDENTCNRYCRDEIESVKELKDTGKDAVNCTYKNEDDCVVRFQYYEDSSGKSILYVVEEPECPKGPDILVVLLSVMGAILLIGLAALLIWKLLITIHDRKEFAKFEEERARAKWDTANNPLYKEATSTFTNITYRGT
The assay can be described thus: Human blood platelet fibrinogen binding test. The following applies: inhibition of binding of 125I labelled human fibrinogen to human blood platelet suspension; ADP final concentration 10 µM. The protocol: The precipitate was suspended in a Tyrode's solution (20% fetal bovine serum, 2 mM Mg^2+), followed by gel filtration using Sepharose 2B column to give a blood platelet suspension (1 x 10^9/ml) apart from fibrinogen. […] The binding inhibition rate of the test drug was then calculated.

For orientation: IC50 means the point on the concentration scale where inhibition reaches its midpoint. The compound `Cc1c(C(=O)NCCC(=O)O)sc(=NC(=O)c2ccc(C(=N)N)cc2)n1C(C)C` [Compound 27] gave an IC50 in assay [1] (Homo sapiens, Platelet, 0.05 h) of 15 nM.
On the same count and under the same terms, the figure for `Cc1c(C(=O)NCCC(=O)O)sc(=NC(=O)c2ccc(C(=N)Nc3ccccc3)cc2)n1C` [Compound 31, N-(2-carboxyethyl)-2-[4-(N-phenylamidino)benzoylimino]-3,4-dimethyl-3H-thiazoline-5-carboxamide hydrobromide] is 20 nM.
On to `Cc1c(C(=O)NCCC(=O)O)sc(=NC(=O)c2ccc(C(=N)N)cc2)n1C` [Compound 5, N-(2-carboxyethyl)-2-(4-amidinobenzoylimino)-3,4-dimetylthiazoline-5-carboxamide hydrobromide], for which the IC50 in assay [2] was 5.1 nM; in assay [1] (Homo sapiens, Platelet, 0.05 h), 17 nM.
As to `CNC(=N)c1ccc(C(=O)N=c2sc(C(=O)NCCC(=O)O)c(C)n2C)cc1` [Compound 7, N-(2-carboxyethyl)-2-[4-(N-methylamidino)benzoylimino]-3,4-dimethyl-3H-thiazoline-5-carboxamide hydrobromide], in assay [2], the half-maximal inhibitory concentration (IC50) worked out at 2.7 nM.
Regarding “3-[3-(4-amidinobenzoyl)benzamide]propionic acid [Control, reference compound]”, the IC50 in assay [2] worked out at 84.4 nM; in assay [1] (concentration causing 50% inhibition of the maximum aggregation, human PRP, ADP final concentration 7 µM, incubated at 37°C for 3 minutes), 105 nM.
On to `Cc1c(C(=O)NCCC(=O)O)sc(=NC(=O)c2ccc(C(=N)NCc3ccccc3)cc2)n1C` [Compound 29], for which the half-maximal inhibitory concentration (IC50) in assay [2] was determined as 7.9 nM; in assay [1] (Homo sapiens, Platelet, 0.05 h), 14 nM.
In turn, `CCCCn1c(C)c(C(=O)NCCC(=O)O)sc1=NC(=O)c1ccc(C(=N)N)cc1` [Compound 22] came in with a 50% inhibitory concentration (IC50) in assay [1] (Homo sapiens, Platelet, 0.05 h) of 18 nM.
Same read-out and setting: then `Cc1c(C(=O)NCCC(=O)O)sc(=NC(=O)c2ccc(C(=N)N)cc2)n1Cc1ccccc1` [Compound 17], with 19 nM.
In the case of `Cc1c(C(=O)NCCC(=O)O)sc(=NC(=O)c2ccc(C(=N)N(C)Cc3ccccc3)cc2)n1C` [Compound 35, N-(2-carboxyethyl)-2-[4-(N-methyl-N-benzylamidino)benzoylimino]-3,4-dimethyl-3H-thiazoline-5-carboxamide hydrobromide], the 50% inhibitory concentration (IC50) in assay [2] was 1 nM.
The same measure, in the same setting: then `COC(=O)CCNC(=O)c1sc(=NC(=O)c2ccc(C#N)cc2)n(C(C)C)c1C` [Compound 23], with 6.3 nM.
`Cc1c(C(=O)NCCC(=O)O)sc(=NC(=O)c2ccc(C(=N)N(C)C)cc2)n1C` [Compound 37, N-(2-carboxyethyl)-2-[4-(N,N-dimethylamidino)benzoylimino]-3,4-dimethyl-3H-thiazoline-5-carboxamide hydrobromide] yielded an IC50 in assay [2] of 1.3 nM.
